In patent US10407409B2, “6-(5-hydroxy-1H-pyrazol-1-yl)nicotinamide inhibitors of PHD” (Takeda Pharmaceutical Company Limited, priority 2013, dated 2019):

Tests used:
[1] = target: PHD2 enzyme (residues 181-417) (Homo sapiens (Human), UniProt Q9GZT9); experiment: Inhibition of PHD enzyme (LC/MS peptide hydroxylation assay); type: biochemical; conditions: PHD2 (residues 181-417) 5 nM, 60 min pre-incubation; -log(IC50), IC50 molar
Outline: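 Hydroxylated peptide quantified by LC/MS after 60 min turnover of 1 uM biotinylated peptide with 2 uM 2-oxoglutarate and 1 mM ascorbate, stopped by excess tight-binding inhibitor. Beforehand, 5 nM enzyme and compound were preincubated 60 min at RT, pH 7.3 HEPES/KCl/TCEP/FeCl2/BSA buffer. Values as pIC50 (−log molar IC50).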

[2] = tested on: HIF1a protein in H9c2 rat cardiomyocytes; experiment: Cell-based HIF-alpha stabilization assay (inhibition of PHD in cells); conditions: 24 hrs compound incubation, HIF1a protein by ELISA; for EC50: Rattus norvegicus, H9c2, 24 h, read-out: Inhibition of PHD in cells (pEC50) (converted)
Outline: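 HIF1a stabilization was measured by ELISA on lysates of H9c2 rat cardiomyocytes after 24 h exposure to 11 serial compound concentrations, expressed relative to the desferrioxamine maximum. Curve fits gave EC50. EC50pos denotes the concentration producing half the desferrioxamine maximal response.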

Sequence of PHD2 enzyme (residues 181-417) (Q9GZT9 181-417): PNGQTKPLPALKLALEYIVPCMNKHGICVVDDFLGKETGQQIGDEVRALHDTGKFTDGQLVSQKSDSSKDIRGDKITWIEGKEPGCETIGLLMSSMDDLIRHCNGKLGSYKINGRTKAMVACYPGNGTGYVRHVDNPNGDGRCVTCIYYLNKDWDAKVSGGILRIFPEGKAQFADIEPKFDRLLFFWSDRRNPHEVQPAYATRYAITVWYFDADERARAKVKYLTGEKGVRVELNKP

Row | PHD Inhibition (pIC50) [1] | SMILES | EC50 [2] | Inhibition of PHD in cells (pEC50) [2]
1 | 7.72 | Cc1cc(C#N)ccc1-c1cnn(-c2ccc(C(=O)N3CCC[C@H]3CN3CCCC3)cn2)c1O [Example 348, (S)-4-(5-hydroxy-1-(5-(2-(pyrrolidin-1-ylmethyl)pyrrolidine-1-carbonyl)pyridin-2-yl)-1H-pyrazol-4-yl)-3-methylbenzonitrile] | 741 nM | 
2 | 6.55 | COCCC(C)NC(=O)c1ccc(-n2ncc(-c3ccnc(OC)c3)c2O)nc1 (stereo not drawn) [Example 114, 6-(5-hydroxy-4-(2-methoxypyridin-4-yl)-1H-pyrazol-1-yl)-N-(4-methoxybutan-2-yl)nicotinamide] | 257 nM | 
3 | 7.75 | Cc1cc(C#N)ccc1-c1cnn(-c2ccc(C(=O)N3CCC4(CCN(C)C4)C3)cn2)c1O (stereo not drawn) [Example 346, 4-(5-hydroxy-1-(5-(7-methyl-2,7-diazaspiro[4.4]nonane-2-carbonyl)pyridin-2-yl)-1H-pyrazol-4-yl)-3-methylbenzonitrile] | 372 nM | 
4 | 8.29 | Cc1c(-c2cnn(-c3ccc(C(=O)N4CCN(C(C)C)[C@@H](C)C4)cn3)c2O)ccc(C#N)c1F [Example 339, (S)-2-fluoro-4-(5-hydroxy-1-(5-(4-isopropyl-3-methylpiperazine-1-carbonyl)pyridin-2-yl)-1H-pyrazol-4-yl)-3-methylbenzonitrile] | 2040 nM | 
5 | 7.9 | Cc1cc(C#N)ccc1-c1cnn(-c2ccc(C(=O)N[C@H]3CC[C@H](C)CC3)cn2)c1O [Example 183, 6-(4-(4-cyano-2-methylphenyl)-5-hydroxy-1H-pyrazol-1-yl)-N-((1r,4r)-4-methylcyclohexyl)nicotinamide] | 646 nM | 
6 | 6.32 | CN(C)CCNC(=O)c1ccc(-n2ncc(-c3ccc(C#N)cc3)c2O)nc1 [Example 268, 6-(4-(4-cyanophenyl)-5-hydroxy-1H-pyrazol-1-yl)-N-(2-(dimethylamino)ethyl)nicotinamide] | 1950 nM | 
7 | 8.31 | Cc1cc(C#N)ccc1-c1cnn(-c2ccc(C(=O)N3CCC(N4CCOCC4)CC3)cn2)c1O [Example 421, 4-(5-hydroxy-1-(5-(4-morpholinopiperidine-1-carbonyl)pyridin-2-yl)-1H-pyrazol-4-yl)-3-methylbenzonitrile] | 661 nM | 
8 | 8.46 | Cc1cc(C#N)ccc1-c1cnn(-c2ccc(C(=O)N3CCN(C)CC(F)(F)C3)cn2)c1O [Example 299, 4-(1-(5-(6,6-difluoro-4-methyl-1,4-diazepane-1-carbonyl)pyridin-2-yl)-5-hydroxy-1H-pyrazol-4-yl)-3-methylbenzonitrile] | 1050 nM | 
9 | 7.3 | COc1cc(-c2cnn(-c3ccc(C(=O)NC(C)(C)CN(C)C)cn3)c2O)ccn1 [Example 51, N-(1-(dimethylamino)-2-methylpropan-2-yl)-6-(5-hydroxy-4-(2-methoxypyridin-4-yl)-1H-pyrazol-1-yl)nicotinamide] | 1820 nM | 
10 | 8.2 | Cc1cc(C#N)ccc1-c1cnn(-c2ccc(C(=O)NCC3CCC(F)(F)CC3)cn2)c1O [Example 247, 6-(4-(4-cyano-2-methylphenyl)-5-hydroxy-1H-pyrazol-1-yl)-N-((4,4-difluorocyclohexyl)methyl)nicotinamide] | 813 nM | 
11 | 6.7 | COc1cc(-c2cnn(-c3ccc(C(=O)NC4(C5CCOCC5)CC4)cn3)c2O)ccn1 [Example 233, 6-(5-hydroxy-4-(2-methoxypyridin-4-yl)-1H-pyrazol-1-yl)-N-(1-(tetrahydro-2H-pyran-4-yl)cyclopropyl)nicotinamide] | 589 nM | 
12 | 8.13 | Cc1c(C#N)ccc(-c2cnn(-c3ccc(C(=O)N4CCN(C5CC5)CC4)cn3)c2O)c1C [Example 310, 4-(1-(5-(4-cyclopropylpiperazine-1-carbonyl)pyridin-2-yl)-5-hydroxy-1H-pyrazol-4-yl)-2,3-dimethylbenzonitrile] | 3160 nM | 
13 | 7.09 | CC[C@H](C)NC(=O)c1ccc(-n2ncc(-c3ccnc(OC)c3)c2O)nc1 [Example 10, (S)—N-(sec-butyl)-6-(5-hydroxy-4-(2-methoxypyridin-4-yl)-1H-pyrazol-1-yl)nicotinamide] | 676 nM | 
14 | 7.3 | COc1cc(-c2cnn(-c3ccc(C(=O)NCCCN4CCCC4)cn3)c2O)ccn1 [Example 39, 6-(5-hydroxy-4-(2-methoxypyridin-4-yl)-1H-pyrazol-1-yl)-N-(3-(pyrrolidin-1-yl)propyl)nicotinamide] |  | 5.58
15 | 8.1 | COCCCNC(=O)c1ccc(-n2ncc(-c3ccc(CC#N)cc3)c2O)nc1 [Example 217, 6-(4-(4-(cyanomethyl)phenyl)-5-hydroxy-1H-pyrazol-1-yl)-N-(3-methoxypropyl)nicotinamide] | 1230 nM | 
16 | 8.47 | Cc1c(-c2cnn(-c3ccc(C(=O)N4CCOCC4)cn3)c2O)ccc(C#N)c1F [Example 327, 2-fluoro-4-(5-hydroxy-1-(5-(morpholine-4-carbonyl)pyridin-2-yl)-1H-pyrazol-4-yl)-3-methylbenzonitrile] | 589 nM | 
17 | 8.60 | COCC[C@H](C)NC(=O)c1ccc(-n2ncc(-c3ccc(C#N)cc3C)c2O)nc1 [Example 360, (S)-6-(4-(4-cyano-2-methylphenyl)-5-hydroxy-1H-pyrazol-1-yl)-N-(4-methoxybutan-2-yl)nicotinamide] | 407 nM | 
18 | 8.4 | CNC(=O)c1ccc(-n2ncc(-c3ccc(C#N)cc3C)c2O)nc1 [Example 107, 6-(4-(4-cyano-2-methylphenyl)-5-hydroxy-1H-pyrazol-1-yl)-N-methylnicotinamide] | 129 nM | 
19 | 7.97 | CCN1CCN(C(=O)c2ccc(-n3ncc(-c4ccc(C#N)c(C)c4C)c3O)nc2)CC1 [Example 309, 4-(1-(5-(4-ethylpiperazine-1-carbonyl)pyridin-2-yl)-5-hydroxy-1H-pyrazol-4-yl)-2,3-dimethylbenzonitrile] | 2630 nM | 
20 | 8.1 | COC[C@H]1CCC[C@H]1NC(=O)c1ccc(-n2ncc(-c3ccc(C#N)cc3C)c2O)nc1 [Example 103, 6-(4-(4-cyano-2-methylphenyl)-5-hydroxy-1H-pyrazol-1-yl)-N-((1R,2S)-2-(methoxymethyl)cyclopentyl)nicotinamide] | 178 nM | 
21 | 7.31 | Cc1cc(-n2ncc(-c3ccc(C#N)cc3)c2O)ncc1C(=O)N(C)C1CCN(C)CC1 [Example 431, 6-(4-(4-cyanophenyl)-5-hydroxy-1H-pyrazol-1-yl)-N,4-dimethyl-N-(1-methylpiperidin-4-yl)nicotinamide] | 2750 nM | 
22 | 8.1 | Cc1cc(C#N)ccc1-c1cnn(-c2ccc(C(=O)NC3CCN(C)CC3)cn2)c1O [Example 100, 6-(4-(4-cyano-2-methylphenyl)-5-hydroxy-1H-pyrazol-1-yl)-N-(1-methylpiperidin-4-yl)nicotinamide] | 75.9 nM | 
23 | 7.28 | CC(C)OCCCNC(=O)c1ccc(-n2ncc(-c3ccc(C#N)cc3)c2O)nc1 [Example 163, 6-(4-(4-cyanophenyl)-5-hydroxy-1H-pyrazol-1-yl)-N-(3-isopropoxypropyl)nicotinamide] | 1480 nM | 
24 | 7.9 | CNC(=O)c1ccc(-n2ncc(-c3ccnc(OC)c3)c2O)nc1 [Example 40, 6-(5-hydroxy-4-(2-methoxypyridin-4-yl)-1H-pyrazol-1-yl)-N-methylnicotinamide] | 977 nM | 
25 | 8.20 | CCN1CCN(C(=O)c2ccc(-n3ncc(-c4cc(F)c(C#N)cc4C)c3O)nc2)[C@@H](C)C1 [Example 433, (S)-4-(1-(5-(4-ethyl-2-methylpiperazine-1-carbonyl)pyridin-2-yl)-5-hydroxy-1H-pyrazol-4-yl)-2-fluoro-5-methylbenzonitrile] | 363 nM | 
26 | 5.69 | O=C(NCc1ccccc1)c1ccc(-n2ncc(-c3ccccn3)c2O)cc1 [Example 280, N-benzyl-4-(5-hydroxy-4-(pyridin-2-yl)-1H-pyrazol-1-yl)benzamide] | 50100 nM | 
27 | 7.4 | COc1cc(-c2cnn(-c3ccc(C(=O)NCC4CCN(C)C4)cn3)c2O)ccn1 (stereo not drawn) [Example 36, 6-(5-hydroxy-4-(2-methoxypyridin-4-yl)-1H-pyrazol-1-yl)-N-((1-methylpyrrolidin-3-yl)methyl)nicotinamide] | 1480 nM | 
28 | 7.01 | COc1cc(-c2cnn(-c3ccc(C(=O)NC(C)C)cn3)c2O)ccn1 [Example 5, 6-(5-hydroxy-4-(2-methoxypyridin-4-yl)-1H-pyrazol-1-yl)-N-isopropylnicotinamide] | 562 nM | 
29 | 7.22 | CC1(C)CC1NC(=O)c1ccc(-n2ncc(-c3ccc(C#N)cc3)c2O)nc1 (stereo not drawn) [Example 54, 6-(4-(4-cyanophenyl)-5-hydroxy-1H-pyrazol-1-yl)-N-(2,2-dimethylcyclopropyl)nicotinamide] | 331 nM | 
30 | 7.45 | COCCCNC(=O)c1ccc(-n2ncc(-c3ccc(C#N)cc3F)c2O)nc1 [Example 213, 6-(4-(4-cyano-2-fluorophenyl)-5-hydroxy-1H-pyrazol-1-yl)-N-(3-methoxypropyl)nicotinamide] | 380 nM | 
